{"source": "patent US9556122B2", "about": "“Luminescent 1-hydroxy-2-pyridinone chelates of lanthanides” (THE REGENTS OF THE UNIVERSITY OF CALIFORNIA, priority 2006, dated 2017)", "test": "Preliminary extraction study", "conditions": "over a wide range of acidity and ionic strength"}
{"smiles": "CCCCCCCCNC(=O)c1cccc(=O)n1O", "note": "[octyl-1,2-HOPO, 1-Hydroxy-6-N-octylcarboxamide-2(1H)-pyridinone]", "values": [{"measurement": "specificity as extractant for Pu(IV)", "result": "high specificity"}]}
